According to ChEMBL document CHEMBL1149107, “Structure-activity relationships of potent, selective inhibitors of neuronal nitric oxide synthase based on the 6-phenyl-2-aminopyridine structure” (J Med Chem, 2004):

Tests used:
[1] = molecular target: T1, Nitric oxide synthase 3 (Homo sapiens, UniProt P29474); experiment: In vitro inhibition of human endothelial nitric oxide synthase
T1 sequence (P29474 whole entry): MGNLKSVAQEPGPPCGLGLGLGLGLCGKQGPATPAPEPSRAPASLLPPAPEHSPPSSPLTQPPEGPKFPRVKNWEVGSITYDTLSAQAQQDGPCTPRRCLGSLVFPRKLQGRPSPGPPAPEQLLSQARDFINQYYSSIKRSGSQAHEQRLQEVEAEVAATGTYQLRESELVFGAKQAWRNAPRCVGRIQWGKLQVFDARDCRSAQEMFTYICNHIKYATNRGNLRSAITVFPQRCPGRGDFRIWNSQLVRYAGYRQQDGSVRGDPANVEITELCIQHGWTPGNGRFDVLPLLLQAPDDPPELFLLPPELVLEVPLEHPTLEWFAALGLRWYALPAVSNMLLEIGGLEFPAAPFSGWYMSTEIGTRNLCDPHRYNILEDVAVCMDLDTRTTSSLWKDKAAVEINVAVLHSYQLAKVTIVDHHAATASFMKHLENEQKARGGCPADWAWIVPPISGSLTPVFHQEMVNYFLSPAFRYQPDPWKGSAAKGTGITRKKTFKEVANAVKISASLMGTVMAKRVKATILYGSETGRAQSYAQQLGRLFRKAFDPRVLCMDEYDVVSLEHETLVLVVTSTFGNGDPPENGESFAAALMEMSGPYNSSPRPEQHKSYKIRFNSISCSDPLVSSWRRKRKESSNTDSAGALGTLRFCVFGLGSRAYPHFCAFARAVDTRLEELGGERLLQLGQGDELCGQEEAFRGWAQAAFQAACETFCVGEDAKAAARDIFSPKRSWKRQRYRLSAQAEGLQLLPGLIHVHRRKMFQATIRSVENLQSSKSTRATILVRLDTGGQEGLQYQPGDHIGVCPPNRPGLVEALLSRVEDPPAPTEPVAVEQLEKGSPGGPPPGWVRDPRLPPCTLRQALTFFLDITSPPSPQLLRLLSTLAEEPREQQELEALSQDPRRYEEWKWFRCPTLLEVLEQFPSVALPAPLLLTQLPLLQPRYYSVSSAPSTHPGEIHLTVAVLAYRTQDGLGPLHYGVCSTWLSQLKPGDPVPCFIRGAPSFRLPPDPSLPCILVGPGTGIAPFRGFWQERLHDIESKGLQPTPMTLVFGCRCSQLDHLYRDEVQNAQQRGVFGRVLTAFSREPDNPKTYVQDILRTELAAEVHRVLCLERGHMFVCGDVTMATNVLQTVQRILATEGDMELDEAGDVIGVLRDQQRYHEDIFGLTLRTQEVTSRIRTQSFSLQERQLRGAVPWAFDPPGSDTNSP

[2] = molecular target: Nitric oxide synthase, inducible (Homo sapiens, UniProt P35228); experiment: In vitro inhibition of human inducible nitric oxide synthase
Sequence of Nitric oxide synthase, inducible (P35228 whole entry): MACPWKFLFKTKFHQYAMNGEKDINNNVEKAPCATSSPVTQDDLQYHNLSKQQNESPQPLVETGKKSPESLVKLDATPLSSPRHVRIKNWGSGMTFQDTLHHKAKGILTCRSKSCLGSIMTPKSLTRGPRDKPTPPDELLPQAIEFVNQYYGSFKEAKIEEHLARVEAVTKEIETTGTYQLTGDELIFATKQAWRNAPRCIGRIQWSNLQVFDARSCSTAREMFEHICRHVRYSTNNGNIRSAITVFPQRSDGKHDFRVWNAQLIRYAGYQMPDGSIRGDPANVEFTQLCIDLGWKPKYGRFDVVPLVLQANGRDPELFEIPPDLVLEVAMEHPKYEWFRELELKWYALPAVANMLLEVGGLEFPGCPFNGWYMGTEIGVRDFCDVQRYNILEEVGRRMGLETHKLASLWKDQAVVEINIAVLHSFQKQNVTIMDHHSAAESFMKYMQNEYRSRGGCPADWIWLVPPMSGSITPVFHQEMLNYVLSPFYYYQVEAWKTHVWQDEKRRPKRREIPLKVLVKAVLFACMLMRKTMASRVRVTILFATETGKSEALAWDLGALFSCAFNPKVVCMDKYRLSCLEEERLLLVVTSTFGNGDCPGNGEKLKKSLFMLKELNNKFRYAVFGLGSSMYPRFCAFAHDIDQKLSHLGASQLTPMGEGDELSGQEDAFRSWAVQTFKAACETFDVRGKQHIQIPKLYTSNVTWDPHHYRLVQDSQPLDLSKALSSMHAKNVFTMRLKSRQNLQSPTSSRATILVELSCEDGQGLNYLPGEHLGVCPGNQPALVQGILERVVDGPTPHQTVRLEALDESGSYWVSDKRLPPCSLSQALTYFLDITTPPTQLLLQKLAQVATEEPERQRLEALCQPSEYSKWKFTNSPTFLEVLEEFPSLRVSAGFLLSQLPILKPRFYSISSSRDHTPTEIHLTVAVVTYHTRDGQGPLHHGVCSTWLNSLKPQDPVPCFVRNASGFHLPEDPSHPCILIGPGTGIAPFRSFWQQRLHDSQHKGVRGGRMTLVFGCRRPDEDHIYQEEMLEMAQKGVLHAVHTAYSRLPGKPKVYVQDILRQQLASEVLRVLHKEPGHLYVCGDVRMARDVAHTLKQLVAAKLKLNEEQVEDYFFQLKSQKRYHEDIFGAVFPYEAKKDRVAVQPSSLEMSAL

[3] = molecular target: Nitric oxide synthase 1 (Homo sapiens, UniProt P29475); experiment: In vitro inhibition of human neuronal nitric oxide synthase
Sequence of Nitric oxide synthase 1 (Homo sapiens, UniProt P29475) (P29475 whole entry): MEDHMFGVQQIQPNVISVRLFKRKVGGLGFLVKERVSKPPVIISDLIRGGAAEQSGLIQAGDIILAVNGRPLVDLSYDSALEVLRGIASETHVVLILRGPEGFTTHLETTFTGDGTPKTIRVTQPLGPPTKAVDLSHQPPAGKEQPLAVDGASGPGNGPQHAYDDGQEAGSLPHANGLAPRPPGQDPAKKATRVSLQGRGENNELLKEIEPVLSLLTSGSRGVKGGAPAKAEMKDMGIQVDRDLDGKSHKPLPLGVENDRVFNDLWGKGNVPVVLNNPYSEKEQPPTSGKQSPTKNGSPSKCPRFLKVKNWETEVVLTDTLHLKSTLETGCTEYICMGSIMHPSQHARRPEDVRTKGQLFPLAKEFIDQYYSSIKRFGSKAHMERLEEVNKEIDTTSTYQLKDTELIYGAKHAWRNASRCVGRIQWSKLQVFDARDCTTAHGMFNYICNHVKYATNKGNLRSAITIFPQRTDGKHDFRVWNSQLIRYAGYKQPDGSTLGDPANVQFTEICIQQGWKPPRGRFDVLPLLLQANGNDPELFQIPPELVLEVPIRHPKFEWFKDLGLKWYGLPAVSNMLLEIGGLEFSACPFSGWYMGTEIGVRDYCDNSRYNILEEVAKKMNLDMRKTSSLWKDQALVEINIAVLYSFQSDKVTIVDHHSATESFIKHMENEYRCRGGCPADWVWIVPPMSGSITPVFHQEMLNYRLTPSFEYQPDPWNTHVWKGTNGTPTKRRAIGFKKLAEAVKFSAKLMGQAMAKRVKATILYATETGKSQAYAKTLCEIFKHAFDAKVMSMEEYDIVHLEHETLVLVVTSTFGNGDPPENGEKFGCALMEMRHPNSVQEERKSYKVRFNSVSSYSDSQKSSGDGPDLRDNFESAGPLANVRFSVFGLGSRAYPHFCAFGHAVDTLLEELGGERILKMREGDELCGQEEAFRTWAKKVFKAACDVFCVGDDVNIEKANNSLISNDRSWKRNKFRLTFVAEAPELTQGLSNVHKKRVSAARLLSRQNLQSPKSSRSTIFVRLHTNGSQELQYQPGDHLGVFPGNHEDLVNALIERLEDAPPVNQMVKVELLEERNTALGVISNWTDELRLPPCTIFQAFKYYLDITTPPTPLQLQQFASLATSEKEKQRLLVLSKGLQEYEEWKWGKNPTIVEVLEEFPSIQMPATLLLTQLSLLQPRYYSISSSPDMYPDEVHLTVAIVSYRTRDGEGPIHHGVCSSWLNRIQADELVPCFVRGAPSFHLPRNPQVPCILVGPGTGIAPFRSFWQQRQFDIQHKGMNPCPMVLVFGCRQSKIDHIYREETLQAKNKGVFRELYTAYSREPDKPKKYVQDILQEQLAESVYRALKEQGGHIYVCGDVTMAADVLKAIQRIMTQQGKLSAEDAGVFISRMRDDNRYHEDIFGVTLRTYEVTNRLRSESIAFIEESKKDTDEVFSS

[4] = molecular target: Nitric oxide synthase 1 (Rattus norvegicus, UniProt P29476); experiment: In vitro inhibition of rat neuronal nitric oxide synthase
Sequence of Nitric oxide synthase 1 (Rattus norvegicus, UniProt P29476) (P29476 whole entry): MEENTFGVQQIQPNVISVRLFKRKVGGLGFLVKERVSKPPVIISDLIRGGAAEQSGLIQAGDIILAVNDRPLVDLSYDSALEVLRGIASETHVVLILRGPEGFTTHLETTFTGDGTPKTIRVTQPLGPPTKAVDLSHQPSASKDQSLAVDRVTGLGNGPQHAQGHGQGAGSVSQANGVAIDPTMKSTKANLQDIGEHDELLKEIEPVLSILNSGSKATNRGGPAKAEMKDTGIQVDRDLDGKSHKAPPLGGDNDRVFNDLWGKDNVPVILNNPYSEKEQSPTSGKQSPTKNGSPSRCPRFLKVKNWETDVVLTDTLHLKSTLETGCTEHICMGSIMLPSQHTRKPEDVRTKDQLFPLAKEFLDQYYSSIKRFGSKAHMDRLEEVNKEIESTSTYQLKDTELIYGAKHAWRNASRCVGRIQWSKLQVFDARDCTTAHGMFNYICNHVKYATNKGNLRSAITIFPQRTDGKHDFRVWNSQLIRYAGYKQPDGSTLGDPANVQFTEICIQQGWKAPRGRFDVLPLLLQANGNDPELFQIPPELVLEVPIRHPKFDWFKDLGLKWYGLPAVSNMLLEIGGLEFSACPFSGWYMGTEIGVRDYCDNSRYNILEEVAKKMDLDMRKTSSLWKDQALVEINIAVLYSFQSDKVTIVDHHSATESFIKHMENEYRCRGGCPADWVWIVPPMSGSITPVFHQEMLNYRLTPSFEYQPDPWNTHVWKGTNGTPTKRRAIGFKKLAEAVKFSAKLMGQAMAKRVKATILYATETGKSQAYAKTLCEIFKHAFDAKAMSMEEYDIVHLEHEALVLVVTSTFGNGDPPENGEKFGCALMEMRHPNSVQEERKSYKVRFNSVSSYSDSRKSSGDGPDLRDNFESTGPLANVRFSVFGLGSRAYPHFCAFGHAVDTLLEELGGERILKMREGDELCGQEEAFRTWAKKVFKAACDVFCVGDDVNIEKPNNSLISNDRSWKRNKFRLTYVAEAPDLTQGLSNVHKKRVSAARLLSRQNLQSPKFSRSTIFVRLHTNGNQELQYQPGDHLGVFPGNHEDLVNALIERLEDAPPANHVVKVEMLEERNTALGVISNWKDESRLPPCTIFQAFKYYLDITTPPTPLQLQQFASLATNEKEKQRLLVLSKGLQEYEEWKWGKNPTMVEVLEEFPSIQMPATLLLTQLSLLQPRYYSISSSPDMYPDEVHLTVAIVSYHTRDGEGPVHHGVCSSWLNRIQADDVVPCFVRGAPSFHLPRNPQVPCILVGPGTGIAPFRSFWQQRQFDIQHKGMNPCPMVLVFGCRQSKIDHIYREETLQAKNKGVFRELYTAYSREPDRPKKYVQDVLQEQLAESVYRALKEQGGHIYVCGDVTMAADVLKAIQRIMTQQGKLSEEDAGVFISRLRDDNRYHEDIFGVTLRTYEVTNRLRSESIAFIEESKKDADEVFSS

Compound | IC50 [1] [nM] | IC50 [2] [nM] | IC50 [3] [nM] | IC50 [4] [nM]
Nc1cccc(-c2ccc(OCCN3CCCC3)c3c2CCC3)n1 | 785 | 450 | 117 | 59
CN1CCN(CCOc2ccc(-c3cccc(N)n3)c3c2CCC3)CC1 | 3030 | 2200 | 123 | 82
CN(C)C1CCN(CCOc2ccc(-c3cccc(N)n3)c3ccccc23)CC1 | 7020 | 5750 | 203 | 195
Nc1cccc(-c2ccc(OCCN3CCCC3)c3ccccc23)n1 | 3710 | 1770 | 250 | 175
CN(C)CCOc1ccc(-c2cccc(N)n2)c2c1C1CCC2C1 (stereo unspecified) | 19000 | 1080 | 120 | 185
Nc1cccc(-c2ccc(OCC3CC4CCN3CC4)c3ccccc23)n1 (stereo unspecified) | 3770 | 5800 | 96.3 | 88
Cc1ccnc(N)c1 | – | – | – | 40
CN(C)C1CCCCC1Oc1ccc(-c2cccc(N)n2)c2ccccc12 (stereo unspecified) | 13000 | 2370 | 161 | 140
CN1CCN(CCOc2ccc(-c3cccc(N)n3)c3ccccc23)CC1 | 12000 | 9380 | 390 | 306
CN1CCN(CCOc2ccc(-c3cccc(N)n3)c3c2CCCC3)CC1 | 10600 | 1280 | 121 | 99.2
CN1CCCC1COc1ccc(-c2cccc(N)n2)c2ccccc12 (stereo unspecified) | 2930 | 2850 | 112 | 80.5
Nc1cccc(-c2ccc(OCCN3CCCC3)c3c2CCCC3)n1 | 2210 | 358 | 141 | 80
CN(C)CCOc1ccc(-c2cccc(N)n2)c2c1CCCCC2 | 5750 | 2100 | 109 | 93
CN1CCC(Oc2ccc(-c3cccc(N)n3)c3ccccc23)C1 (stereo unspecified) | 13000 | 2070 | 70.3 | 48
CN(C)CCOc1ccc(-c2cccc(N)n2)c2ccccc12 | 5790 | 4600 | 220 | 167
CN(C)CCOc1ccc(-c2cccc(N)n2)c2c1CCC2 | 1570 | 592 | 50.6 | 21.8
CN(C)CCOc1ccc(-c2cccc(N)n2)c2c1CCCC2 | 3530 | 517 | 70.9 | 34
O=[N+]([O-])c1cccc2cn[nH]c12 [7-NITROINDAZOLE] | – | – | 2500 | –
